Experimental data as given in patent publication US8765693B2, “Method of inhibiting premature aging of human skin caused by exposure to infrared radiation” (L'Oreal, priority 2012, dated 2014).

System: IRA induced MMP-1
Test: IRA-induced MMP-1 mRNA expression in primary human dermal fibroblasts
Assay type: cell-based
Conditions: for Effects in IRA treated cells: inhibition (MMP-1 mRNA): 24 hrs pre-incubation, 360 J/cm^2 Infrared A, harvested 24 hrs after irradiation; for Effect on IRA induced MMP-1 in vitro (in words): primary human dermal fibroblasts
Procedure: Primary Human Dermal Fibroblasts
Hydrosun 500H IRA device (Hydrosun Medizintechnik GmbH, Müllheim, Germany). The IRA device was water-filtered and equipped with a black filter and emits wavelengths between 760 and 1400 nm leading to an irradiance of 360 mW/cm^2.
Baicalin: stock 44.8 mM in DMSO, and diluted to 10 μM, 25 μM
Phloretin: stock 50 mM in DMSO, and diluted to 1 μM, 5 μM, and 10 μM as final treatment conditions.
Neohesperidin dihydrochalcone: stock 710 mM in DMSO, and diluted to 100 μM, 500 μM, and 1 mM as final treatment conditions.
Cells were incubated for 24 hrs after irradiation, and then harvested to have MMP-1 mRNA analyzed.

SMILES | Effects in IRA treated cells: inhibition (MMP-1 mRNA) (10 μM) | Effects in IRA treated cells: inhibition (MMP-1 mRNA) (25 μM (0.001%)) | Effect on IRA induced MMP-1 in vitro (in words) | Effects in IRA treated cells: inhibition (MMP-1 mRNA) (100 μM (0.006%)) | Effects in IRA treated cells: inhibition (MMP-1 mRNA) (500 μM (0.03%)) | Effects in IRA treated cells: inhibition (MMP-1 mRNA) (1 mM (0.06%)) | Effects in IRA treated cells: inhibition (MMP-1 mRNA) (1 μM (0.00002%)) | Effects in IRA treated cells: inhibition (MMP-1 mRNA) (5 μM (0.00014%))
O=C(O)[C@H]1O[C@@H](Oc2cc3oc(-c4ccccc4)cc(=O)c3c(O)c2O)[C@H](O)[C@@H](O)[C@@H]1O [Baicalin] | 26% inhibition with 10 μM | 100% inhibition with 25 μM+ (0.001%) | reduced IRA induced MMP-1 |  |  |  |  | 
COc1ccc(CCC(=O)c2c(O)cc(O[C@@H]3O[C@H](CO)[C@@H](O)[C@H](O)[C@H]3O[C@@H]3O[C@@H](C)[C@H](O)[C@@H](O)[C@H]3O)cc2O)cc1O [Neohesperidin dihydrochalcone] |  |  | reduced IRA induced MMP-1 | 100% inhibition with 100 μM+ (0.006%) | 100% inhibition with 500 μM+ (0.03%) | 100% inhibition with 1 mM+ (0.06%) |  | 
O=C(CCc1ccc(O)cc1)c1c(O)cc(O)cc1O [Phloretin] | 68% inhibition with 10 μM+ (0.0028%) |  | reduced IRA induced MMP-1 |  |  |  | 22% inhibition with 1 μM+ (0.00002%) | 78% inhibition with 5 μM+ (0.00014%)
